{
  "source": "patent US20230382998A1",
  "about": "“METHODS FOR TREATING INFLAMMATORY BOWEL DISEASES WITH a4B7 INTEGRIN ANTAGONISTS” (Protagonist Therapeutics, Inc., priority 2022, published 2023)",
  "key": {"[1]": {"test": "DTT (Dithiothreitol) assay, stability to gastric environment under reduced conditions", "type": "physicochemical", "method": "The compound of formula (I) or a pharmaceutically acceptable salt thereof comprises a half-life from approximately 1 minute to approximately 180 minutes."}, "[2]": {"test_system": "subjects with moderate to severe active ulcerative colitis", "test": "Phase 2 randomized, double-blind, placebo-controlled study of oral Compound (I), 12-week induction", "type": "in vivo, human", "settings": "FIG. 3; for proportion of subjects achieving clinical remission at Week 12, total: 150 mg BID + 450 mg BID", "source_text": "As used herein, the term “clinical remission rate” refers to when the symptoms of IBD have lessened to the point that they're mostly absent or gone, including endoscopic remission, wherein inflammation is seen during a colonoscopy or a sigmoidoscopy and determined by a healthcare provider that the lining of the digestive tract is improved or healed. […] As used herein, the term “compound of formula (I)” or Compound (I) refers to a peptide compound having the following structure:\nThe study also evaluates the pharmacokinetic (PK) and pharmacodynamics (PD) and biomarker responses to treatment with oral Compound (I).\nThis is a two-part study: Part 1 is a randomized, double-blind, placebo-controlled, parallel design 12-week induction treatment period in patients with moderate to severe active UC; and Part 2 is an extended treatment period of 40 weeks that will include subjects who successfully complete Part 1. Subjects who complete the Week 12 visit for Part 1 will be eligible to enter Part 2.\nPart 1 is a 12-week randomized, double-blind, placebo-controlled, parallel design study in adult subjects with moderate to severe active UC. Eligible subjects are randomized 1:1:1 to Compound (I) 450 mg twice daily (BID), Compound (I) 150 mg BID, or placebo BID. Subjects must have a biopsy-confirmed diagnosis of UC. […] Subjects with a history of prior vedolizumab treatment will be excluded. Randomization will be stratified by prior failure to a TNFα antagonist or an IL-12/23 antagonist.\nPrimary outcome measures include the proportion of subjects achieving clinical remission at Week 12 compared to placebo. Clinical remission is determined using the Adapted Mayo score (sum of 3 subscores from the Mayo score): • Stool frequency subscore (SFS) • Rectal bleeding subscore (RBS) • Endoscopic subscore (ESS)\nEfficacy is assessed, at least in part, based on the Mayo score. The Mayo score includes 4 components: Stool Frequency Subscore (SFS), Rectal Bleeding Subscore (RBS), Endoscopic Subscore (ESS) and Physician's Global Assessment (PGA). Each of the individual scores range from 0 to 3 with higher number indicating higher severity): • Complete Mayo Score is a sum of all 4 subscores (SFS, RBS, ESS and PGA) and ranges from 0 to 12 points. • Adapted Mayo Score is a sum of 3 subscores (SFS, RBS and ESS). The Adapted Mayo score ranges from 0 to 9 points. • Partial Mayo Score is a sum of 3 subscores (SFS, RBS and PGA) ranging from 0 to 9 points.\nBlood samples for measurement of Compound (I) plasma concentrations will be collected at 0 (within 1 hour pre-dose) and at 1, 2, and 4 hours post-dose on Week 0 (Study Day 1) and Week 12. A single pre-dose sample should be collected within 1 hour prior to the first dose of the day on each clinic visit.\nBlood (4 mL) samples for PK analysis will be obtained in K2EDTA tubes prior to dosing and at the time points delineated in the study schedule. All samples (except those collected post-dose on Day 0 and Day 84) should be obtained prior to the daily dosing of study drug (i.e. Ctrough)."}, "[3]": {"settings": "trough concentration quartile Q1 at week 12"}, "[4]": {"settings": "trough concentration quartile Q2 at week 12"}, "[5]": {"settings": "trough concentration quartile Q3 at week 12"}, "[6]": {"settings": "trough concentration quartile Q4 at week 12"}},
  "note": "Numbered stars: 1 amine (or outer) side, 2 acyl side, 3 side chain; on linkers, the order of the positions; unused ones are H or OH. Bridge positions count the residues as written; N and C are the ends. Square brackets hold non-standard residues; d marks the D form. Peptide text beside a SMILES is read from it. I, II: the chains in the order shown. ξ: configuration not given here. Phe(4-tBu) = CC(C)(C)c1ccc(C[C@H](N)C(=O)O)cc1; Diglycolyl = O=C(COCC(=O)[*:2])[*:1]; NMeR = CN[C@@H](CCCNC(=N)N)C(=O)O; β3hE = N[C@@H](CCC(=O)O)CC(=O)O; Thr(3ξ) = CC(O)[C@H](N)C(=O)O; X1 = O=C(c1ccccc1C[*:2])[*:1]; Pen = CC(C)(S)[C@H](N)C(=O)O",
  "data": [
    {"smiles": "CC(C)C[C@@H]1NC(=O)[C@H](C(C)O)NC(=O)[C@H](CC(=O)O)NC(=O)[C@H](CO)NC(=O)[C@H](CCCNC(=N)N)N(C)C(=O)c2ccccc2CSC(C)(C)[C@@H](C(=O)N[C@@H](Cc2ccc(C(C)(C)C)cc2)C(=O)N[C@@H](CCC(=O)O)CC(=O)N[C@H](CCCCNC(=O)COCC(=O)NCCCC[C@@H](NC(=O)C[C@H](CCC(=O)O)NC(=O)[C@H](Cc2ccc(C(C)(C)C)cc2)NC(=O)[C@H]2NC(=O)[C@H](CC(C)C)NC(=O)[C@H](C(C)O)NC(=O)[C@H](CC(=O)O)NC(=O)[C@H](CO)NC(=O)[C@H](CCCNC(=N)N)N(C)C(=O)c3ccccc3CSC2(C)C)C(=O)O)C(=O)O)NC1=O", "note": "(stereo partly drawn) [compound of formula (I)] (I: [NMeR]SD[Thr(3ξ)]L[Pen][Phe(4-tBu)][β3hE][dK]-OH / II: [NMeR]SD[Thr(3ξ)]L[Pen][Phe(4-tBu)][β3hE][dK]-OH; linker I:9-II:9 via Diglycolyl; linker I:N-I:6, II:N-II:6 via X1)", "values": [
      {"measurement": "half-life", "setting": "[1]", "value": "> 2", "unit": "h"},
      {"measurement": "proportion of subjects achieving clinical remission at Week 12, total", "setting": "[2]; [3]", "value": 33.3, "unit": "%"},
      {"measurement": "proportion of subjects achieving clinical remission at Week 12, part being 450 mg BID dose", "setting": "[2]; [3]", "value": 26.7, "unit": "%"},
      {"measurement": "proportion of subjects achieving clinical remission at Week 12, total", "setting": "[2]; [4]", "value": 40, "unit": "%"},
      {"measurement": "proportion of subjects achieving clinical remission at Week 12, part being 450 mg BID dose", "setting": "[2]; [4]", "value": 26.7, "unit": "%"},
      {"measurement": "proportion of subjects achieving clinical remission at Week 12, total", "setting": "[2]; [5]", "value": 13.3, "unit": "%"},
      {"measurement": "proportion of subjects achieving clinical remission at Week 12, part being 450 mg BID dose", "setting": "[2]; [5]", "value": 6.7, "unit": "%"},
      {"measurement": "proportion of subjects achieving clinical remission at Week 12, total", "setting": "[2]; [6]", "value": 18.8, "unit": "%"},
      {"measurement": "proportion of subjects achieving clinical remission at Week 12, part being 450 mg BID dose", "setting": "[2]; [6]", "value": 6.3, "unit": "%"}
    ]}
  ]
}
